Data on 2 compounds can be found in EP4620476A1, “ANTIVIRAL COMPOSITION CONTAINING INCLUSION COMPOUNDS WITH CYCLODEXTRINS AS ACTIVITY MODULATORS AND ANTISEPTIC ACTIVES AND USES THEREOF” (Silva, Renata Moisés Iwamizu, priority 2022, dated 2024).

For data set [1] the following is noted: cited from earlier work.
In data set [2] the test system is HSV-1. Put plainly: Virucidal assay: HSV-1 incubated with product, then added to Vero cells, MTT readout. In kind it is cell-based. The settings on record: 3 µg/mL. As for the experimental part:
(§1) The product was evaluated for its effective concentration against the virus without causing toxicity to the tested cells. The virus (HSV-1) was added to different dilutions of the product and incubated for 1 hour at 37°C. Then, the solution was diluted (1:10) and added to Vero cells (ATCC CCL-81) for incubation for 72 hours at 37°C and 5% CO2. Positive control (virus without treatment with the inclusion compounds) and negative control (cells without virus and without treatment) were used, under the same conditions, in all tests. The results were evaluated by MTT (Mosmann, 1983; Sieuwerts et al., 1995). The assays were carried out in a NB-2 laboratory (Biosafety Level 2) following Good Laboratory Practices (GLP) and in accordance with the recommendations of ANVISA (Art. 1 and Art. 3 of IN 04/13 and IN 12/16).

Data set [3] in a line: Cytotoxicity in Vero cells (MTT). In kind it is cell-based. The settings on record: monkey. As for the experimental part: as §1

Structures are written as SMILES. Counter-ions that a name gives are not always drawn.

Regarding `Nc1nc2c(ncn2COCCO)c(=O)[nH]1` [Acyclovir], the plasma protein binding result in data set [1] is reported as “less than 20%”.
For the compound `N=C(NCCCCCCNC(=N)NC(=N)Nc1ccc(Cl)cc1)NC(=N)Nc1ccc(Cl)cc1` [digluconate salt of chlorhexidine], the “inactivation of HSV-1” value in data set [2] is “unable to inactivate HSV-1”. In data set [3], this compound returned a half-maximal cytotoxic concentration (CC50) at 72 h above 3 µg/mL.
